Measured values reported in patent US20240376084A1, “INHIBITORS OF ALPHA-HEMOLYSIN OF STAPHYLOCOCCUS AUREUS” (Helmholtz-Zentrum Fur Infektionsforschung GmbH, priority 2021, published 2024).

Target: hemolysin alpha from Staphylococcus aureus (Staphylococcus aureus, UniProt P09616)
Experiment: cell-based

Chain of hemolysin alpha from Staphylococcus aureus (P09616 27-319 limits assumed): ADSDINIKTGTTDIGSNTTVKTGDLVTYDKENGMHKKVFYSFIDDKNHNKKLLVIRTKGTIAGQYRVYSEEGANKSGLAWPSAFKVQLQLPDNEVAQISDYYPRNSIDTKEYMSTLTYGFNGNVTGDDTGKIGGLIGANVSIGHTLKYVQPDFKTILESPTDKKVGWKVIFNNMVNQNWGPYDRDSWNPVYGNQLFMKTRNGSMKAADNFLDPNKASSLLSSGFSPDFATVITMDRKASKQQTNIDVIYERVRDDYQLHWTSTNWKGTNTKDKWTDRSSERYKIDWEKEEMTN

Row | SMILES | IC50 | EC50
1 | Cc1cc2[nH]c(=O)c(=O)[nH]c2cc1S(=O)(=O)Nc1ccc(-c2c(C)cccc2C)cc1 [Compound 116, N-(2′,6′-dimethyl-[1,1′-biphenyl]-4-yl)-7-methyl-2,3-dioxo-1,2,3,4-tetrahydroquinoxaline-6-sulfonamide] | 100 to 1000 nM | 
2 | CC(C)c1cc2[nH]c(=O)c(=O)[nH]c2cc1S(=O)(=O)Nc1ccc(-c2ccncc2)c(Cl)c1 [Compound 159, N-(3-chloro-4-(pyridin-4-yl)phenyl)-7-isopropyl-2,3-dioxo-1,2,3,4-tetrahydroquinoxaline-6-sulfonamide] | 1000 to 3500 nM | 
3 | Cc1cc2[nH]c(=O)c(=O)[nH]c2cc1S(=O)(=O)Nc1ccc(N2CCOCC2)cc1 [Compound 180, 7-methyl-N-(4-morpholinophenyl)-2,3-dioxo-1,2,3,4-tetrahydroquinoxaline-6-sulfonamide] | 1000 to 3500 nM | 
4 | O=c1[nH]c2cc(F)c(S(=O)(=O)Nc3ccc4c(c3)CCCC4)cc2[nH]c1=O [Compound 164, 7-fluoro-2,3-dioxo-N-(5,6,7,8-tetrahydronaphthalen-2-yl)-1,2,3,4-tetrahydroquinoxaline-6-sulfonamide] | 100 to 1000 nM | 
5 | Cc1cc(NS(=O)(=O)c2cc3[nH]c(=O)c(=O)[nH]c3cc2F)cc(C)c1Br [Compound 162, N-(4-bromo-3,5-dimethylphenyl)-7-fluoro-2,3-dioxo-1,2,3,4-tetrahydroquinoxaline-6-sulfonamide] | 100 to 1000 nM | 
6 | Cc1cc2[nH]c(=O)c(=O)[nH]c2cc1S(=O)(=O)Nc1ccc(N2CCOCC2)c(Cl)c1 [Compound 200, N-(3-chloro-4-morpholinophenyl)-7-methyl-2,3-dioxo-1,2,3,4-tetrahydroquinoxaline-6-sulfonamide] |  | 1000 to 3500 nM
7 | CCOc1ccc(NS(=O)(=O)c2cc3[nH]c(=O)c(=O)[nH]c3cc2C)cc1 [Compound 111, N-(4-ethoxyphenyl)-7-methyl-2,3-dioxo-1,2,3,4-tetrahydroquinoxaline-6-sulfonamide] | 100 to 1000 nM | 
8 | Cc1cc2[nH]c(=O)c(=O)[nH]c2cc1S(=O)(=O)Nc1ccc(N2CCOC(C)C2)c(Cl)c1 (stereo not drawn) [Compound 204, N-(3-chloro-4-(2-methylmorpholino)phenyl)-7-methyl-2,3-dioxo-1,2,3,4-tetrahydroquinoxaline-6-sulfonamide] |  | 1000 to 3500 nM
9 | CCCc1ccc(NS(=O)(=O)c2cc3[nH]c(=O)c(=O)[nH]c3cc2C(C)C)cc1 [Compound 151, 7-isopropyl-2,3-dioxo-N-(4-propylphenyl)-1,2,3,4-tetrahydroquinoxaline-6-sulfonamide] | 100 to 1000 nM | 
10 | Cc1cc(NS(=O)(=O)c2cc3[nH]c(=O)c(=O)[nH]c3cc2F)ccc1Br [Compound 163, N-(4-bromo-3-methylphenyl)-7-fluoro-2,3-dioxo-1,2,3,4-tetrahydroquinoxaline-6-sulfonamide] | 100 to 1000 nM | 
11 | Cc1nc2cc(NS(=O)(=O)c3cc4[nH]c(=O)c(=O)[nH]c4cc3C)ccc2s1 [Compound 234, 7-methyl-N-(2-methylbenzo[d]thiazol-5-yl)-2,3-dioxo-1,2,3,4-tetrahydroquinoxaline-6-sulfonamide] |  | 1000 to 3500 nM
12 | Cc1cc2[nH]c(=O)c(=O)[nH]c2cc1S(=O)(=O)Nc1cc(C)c(-c2cn[nH]c2)c(C)c1 [Compound 187, N-(3,5-dimethyl-4-(1H-pyrazol-4-yl)phenyl)-7-methyl-2,3-dioxo-1,2,3,4-tetrahydroquinoxaline-6-sulfonamide] | 1000 to 3500 nM | 
13 | Cc1cc(NS(=O)(=O)c2cc3[nH]c(=O)c(=O)[nH]c3cc2Cl)cc(C)c1-c1ccsc1 [Compound 80, 7-chloro-N-(3,5-dimethyl-4-(thiophen-3-yl)phenyl)-2,3-dioxo-1,2,3,4-tetrahydroquinoxaline-6-sulfonamide] | 100 to 1000 nM | 
14 | COc1cc2[nH]c(=O)c(=O)[nH]c2cc1S(=O)(=O)Nc1ccc(OC(F)(F)F)cc1 [Compound 193, 7-methoxy-2,3-dioxo-N-(4-(trifluoromethoxy)phenyl)-1,2,3,4-tetrahydroquinoxaline-6-sulfonamide] |  | 100 to 1000 nM
15 | Cc1ccc(-c2ccc(NS(=O)(=O)c3cc4[nH]c(=O)c(=O)[nH]c4cc3C)cc2)cc1 [Compound 115, 7-methyl-N-(4′-methyl-[1,1′-biphenyl]-4-yl)-2,3-dioxo-1,2,3,4-tetrahydroquinoxaline-6-sulfonamide] | 100 to 1000 nM | 
16 | O=c1[nH]c2cc(F)c(S(=O)(=O)Nc3ccc4ccccc4c3)cc2[nH]c1=O [Compound 95, 7-fluoro-N-(naphthalen-2-yl)-2,3-dioxo-1,2,3,4-tetrahydroquinoxaline-6-sulfonamide] | 100 to 1000 nM | 
17 | Cc1cc2[nH]c(=O)c(=O)[nH]c2cc1S(=O)(=O)Nc1ccc(-c2ccc(F)cc2)c(S(C)(=O)=O)c1 [Compound 397, N-[4-(4-fluorophenyl)-3-methylsulfonyl-phenyl]-7-methyl-2,3-dioxo-1,4-dihydroquinoxaline-6-sulfonamide] |  | 1000 to 3500 nM
18 | Cc1cc2[nH]c(=O)c(=O)[nH]c2cc1S(=O)(=O)Nc1ccc2c(ccn2C)c1 [Compound 228, 7-methyl-N-(1-methyl-1H-indol-5-yl)-2,3-dioxo-1,2,3,4-tetrahydroquinoxaline-6-sulfonamide] |  | 1000 to 3500 nM

Row | SMILES | IC50 | EC50
19 | Cc1cc2[nH]c(=O)c(=O)[nH]c2cc1S(=O)(=O)Nc1cnc(-c2ccc(F)c(Cl)c2)c(Cl)c1 [Compound 214, N-(5-chloro-6-(3-chloro-4-fluorophenyl)pyridin-3-yl)-7-methyl-2,3-dioxo-1,2,3,4-tetrahydroquinoxaline-6-sulfonamide] |  | 100 to 1000 nM
20 | O=c1[nH]c2cc(F)c(S(=O)(=O)Nc3ccc(C(F)(F)F)cc3)cc2[nH]c1=O [Compound 160, 7-fluoro-2,3-dioxo-N-(4-(trifluoromethyl)phenyl)-1,2,3,4-tetrahydroquinoxaline-6-sulfonamide] | 1000 to 3500 nM | 
21 | Cc1cc(NS(=O)(=O)c2cc3[nH]c(=O)c(=O)[nH]c3cc2Cl)cc(C)c1-c1ccncc1 [Compound 157, 7-chloro-N-(3,5-dimethyl-4-(pyridin-4-yl)phenyl)-2,3-dioxo-1,2,3,4-tetrahydroquinoxaline-6-sulfonamide] | 1000 to 3500 nM | 
22 | O=c1[nH]c2cc(C(F)(F)F)c(S(=O)(=O)Nc3ccc(OC(F)(F)F)cc3)cc2[nH]c1=O [Compound 190, 2,3-Dioxo-N-(4-(trifluoromethoxy)phenyl)-7-trifluoromethyl-1,2,3,4-tetrahydroquinoxaline-6-sulfonamide] |  | 100 to 1000 nM
23 | Cc1ccc(NS(=O)(=O)c2cc3[nH]c(=O)c(=O)[nH]c3cc2C)cc1C [Compound 185, N-(3,4-dimethylphenyl)-7-methyl-2,3-dioxo-1,2,3,4-tetrahydroquinoxaline-6-sulfonamide] | 1000 to 3500 nM | 
24 | Cc1cc2[nH]c(=O)c(=O)[nH]c2cc1S(=O)(=O)Nc1ccc2ncccc2c1 [Compound 186, 7-methyl-2,3-dioxo-N-(quinolin-6-yl)-1,2,3,4-tetrahydroquinoxaline-6-sulfonamide] | 1000 to 3500 nM | 
25 | Cc1cc2[nH]c(=O)c(=O)[nH]c2cc1S(=O)(=O)Nc1ccc2cccnc2c1 [Compound 231, 7-methyl-2,3-dioxo-N-(quinolin-7-yl)-1,2,3,4-tetrahydroquinoxaline-6-sulfonamide] |  | 100 to 1000 nM
26 | CC(C)c1cc2[nH]c(=O)c(=O)[nH]c2cc1S(=O)(=O)Nc1ccc(-c2ccccc2)c(Cl)c1 [Compound 176, N-(2-chloro-[1,1′-biphenyl]-4-yl)-7-isopropyl-2,3-dioxo-1,2,3,4-tetrahydroquinoxaline-6-sulfonamide] | 100 to 1000 nM | 
27 | CN(C)c1cc2[nH]c(=O)c(=O)[nH]c2cc1S(=O)(=O)Nc1ccc(OC(F)(F)F)cc1 [Compound 221, 7-(dimethylamino)-2,3-dioxo-N-(4-(trifluoromethoxy)phenyl)-1,2,3,4-tetrahydroquinoxaline-6-sulfonamide] |  | 30 to 100 nM
28 | O=c1[nH]c2cc([N+](=O)[O-])c(S(=O)(=O)Nc3ccc(OC(F)(F)F)cc3)cc2[nH]c1=O [Compound 191, 7-nitro-2,3-dioxo-N-(4-(trifluoromethoxy)phenyl)-1,2,3,4-tetrahydroquinoxaline-6-sulfonamide] |  | 100 to 1000 nM
29 | Cc1cc2[nH]c(=O)c(=O)[nH]c2cc1S(=O)(=O)Nc1ccc(N2CCCC2)c(Cl)c1 [Compound 196, N-(3-chloro-4-(pyrrolidin-1-yl)phenyl)-7-methyl-2,3-dioxo-1,2,3,4-tetrahydroquinoxaline-6-sulfonamide] |  | 30 to 100 nM
30 | Cc1cc2[nH]c(=O)c(=O)[nH]c2cc1S(=O)(=O)Nc1cc(C)c(-c2cnn(C)c2)c(C)c1 [Compound 184, N-(3,5-dimethyl-4-(1-methyl-1H-pyrazol-4-yl)phenyl)-7-methyl-2,3-dioxo-1,2,3,4-tetrahydroquinoxaline-6-sulfonamide] | 1000 to 3500 nM | 
31 | CC(C)(C)c1ccc(NS(=O)(=O)c2cc3[nH]c(=O)c(=O)[nH]c3cc2Br)cc1 [Compound 195, 7-bromo-N-(4-(tert-butyl)phenyl)-2,3-dioxo-1,2,3,4-tetrahydroquinoxaline-6-sulfonamide] |  | 1000 to 3500 nM
32 | Cc1cc2[nH]c(=O)c(=O)[nH]c2cc1S(=O)(=O)Nc1cc(C)c(-c2ccnn2C)c(C)c1 [Compound 188, N-(3,5-dimethyl-4-(1-methyl-1H-pyrazol-5-yl)phenyl)-7-methyl-2,3-dioxo-1,2,3,4-tetrahydroquinoxaline-6-sulfonamide] | 1000 to 3500 nM | 
33 | Cc1cc(NS(=O)(=O)c2cc3[nH]c(=O)c(=O)[nH]c3cc2Cl)ccc1-c1ccncc1 [Compound 155, 7-chloro-N-(3-methyl-4-(pyridin-4-yl)phenyl)-2,3-dioxo-1,2,3,4-tetrahydroquinoxaline-6-sulfonamide] | 100 to 1000 nM | 
34 | Cc1cc2[nH]c(=O)c(=O)[nH]c2cc1S(=O)(=O)Nc1ccc(-c2ccccc2)nc1 [Compound 224, 7-methyl-2,3-dioxo-N-(6-phenylpyridin-3-yl)-1,2,3,4-tetrahydroquinoxaline-6-sulfonamide] |  | 100 to 1000 nM
35 | Cc1cc2[nH]c(=O)c(=O)[nH]c2cc1S(=O)(=O)Nc1cnn(-c2ccccc2)c1 [Compound 207, 7-methyl-2,3-dioxo-N-(1-phenyl-1H-pyrazol-4-yl)-1,2,3,4-tetrahydroquinoxaline-6-sulfonamide] |  | 1000 to 3500 nM
36 | Cc1cc2[nH]c(=O)c(=O)[nH]c2cc1S(=O)(=O)Nc1ccc(-c2cncc(Cl)c2)c(Cl)c1 [Compound 189, N-(3-chloro-4-(5-chloropyridin-3-yl)phenyl)-7-methyl-2,3-dioxo-1,2,3,4-tetrahydroquinoxaline-6-sulfonamide] | 30 to 100 nM | 
